Measured values as given in patent publication US5849915A (priority 1996, dated 1998).

Assays:
[1] = set-up: species or system mice; details: mouse, in vivo, sc, 30 min
[2] = set-up: species or system mice; details: mouse, in vivo
[3] = set-up: species or system mice; details: mouse, in vivo, sc

Compound	ED50 (95% confidence limits) in the hot plate [1] [mg/kg]	anti-Mor effect (in words) [2]	AD50 (95% confidence limits), dosage required to inhibit Mor analgesia by 50% ([2]; sc) [mg/kg]	ED50 (95% confidence limits) in the acetic acid writhing test [3] [mg/kg]
CN1CC[C@]23c4c5ccc(O)c4O[C@H]2[C@@H](O)C=C[C@H]3[C@H]1C5 [Morphine]	5.81			
CO[C@]12CC[C@@]3(C[C@@H]1[C@](C)(O)C(C)(C)C)[C@H]1Cc4ccc(O)c5c4[C@@]3(CCN1CC1CC1)[C@H]2O5 [Buprenorphine]		antagonised Mor analgesia	1.33	0.00693
